Test results from patent publication US8952024B2, “Herbicidal pyrimidone derivatives” (E I du Pont de Nemours and Company, priority 2009, dated 2015).

Legend:
Assay in all cases: Test B pre-/postemergence plant response
Type in all cases: in vivo
corn (Zea mays) = system: corn (Zea mays)
Source text: (§1) Seeds of plant species selected from blackgrass (Alopecurus myosuroides), downy bromegrass (Bromus tectorum), green foxtail (Setaria viridis), Italian ryegrass (Lolium multiflorum), wheat (Triticum aestivum), wild oat (Avena fatua), deadnettle (henbit deadnettle, Lamium amplexicaule), galium (catchweed bedstraw, Galium aparine), bermudagrass (Cynodon dactylon), Surinam grass (Brachiaria decumbens), cocklebur (Xanthium strumarium), corn (Zea mays), large crabgrass (Digitaria sanguinalis), woolly cupgrass (Eriochloa villosa), giant foxtail (Setaria faberii), goosegrass (Eleusine indica), johnsongrass (Sorghum halepense), kochia (Kochia scoparia), lambsquarters (Chenopodium album), morningglory (Ipomoea coccinea), nightshade (eastern black nightshade, Solanum ptycanthum), yellow nutsedge (Cyperus esculentus), pigweed (Amaranthus retroflexus), ragweed (common ragweed, Ambrosia elatior), Russian thistle (Salsola kali), soybean (Glycine max), sunflower (common oilseed sunflower, Helianthus annuus) and velvetleaf (Abutilon theophrasti) were planted into a blend of loam soil and sand and treated preemergence with test compounds formulated in a non-phytotoxic solvent mixture which included a surfactant.
(§2) At the same time, plants selected from these crop and weed species and also winter barley (Hordeum vulgare), canarygrass (Phalaris minor), chickweed (Stellaria media) and windgrass (Apera spica-venti) were planted in pots containing Redi-Earth® planting medium (Scotts Company, 14111 Scottslawn Road, Marysville, Ohio 43041) comprising spaghnum peat moss, vermiculite, wetting agent and starter nutrients and treated with postemergence applications of some of the test chemicals formulated in the same manner. Plants ranged in height from 2 to 18 cm (1- to 4-leaf stage) for postemergence treatments.
(§3) Treated plants and controls were maintained in a greenhouse for 13 to 15 days, after which time all treated plants were visually evaluated and compared to controls. Plant response ratings, summarized in Table B, are based on a scale of 0 to 100 where 0 is no effect and 100 is complete control. A dash (-) response means no test result.

[1] = system: johnsongrass (Sorghum halepense)
Source text: as §1, §2, §3

[2] = system: velvetleaf (Abutilon theophrasti)
Source text: as §1, §2, §3

[3] = system: ragweed (common ragweed, Ambrosia elatior)
Source text: as §1, §2, §3

[4] = system: woolly cupgrass (Eriochloa villosa)
Source text: as §1, §2, §3

[5] = system: giant foxtail (Setaria faberii)
Source text: as §1, §2, §3

[6] = system: Italian ryegrass (Lolium multiflorum)
Source text: as §1, §2, §3

[7] = system: Surinam grass (Brachiaria decumbens)
Source text: as §1, §2, §3

kochia (Kochia scoparia) = system: kochia (Kochia scoparia)
Source text: as §1, §2, §3

[8] = system: pigweed (Amaranthus retroflexus)
Source text: as §1, §2, §3

soybean (Glycine max) = system: soybean (Glycine max)
Source text: as §1, §2, §3

[9] = system: blackgrass (Alopecurus myosuroides)
Source text: as §1, §2, §3

[10] = system: downy bromegrass (Bromus tectorum)
Source text: as §1, §2, §3

[11] = 31 g ai/ha, postemergence, scale 0 to 100, 0 is no effect, 100 is complete control
[12] = 62 g ai/ha, postemergence, 0 is no effect, 100 is complete control, 13 to 15 days
[13] = Postemergence, 125 g ai/ha, visual rating after 13 to 15 days, scale 0 (no effect) to 100 (complete control)
[14] = Postemergence, 250 g ai/ha, scale 0 to 100 (0 no effect, 100 complete control)
[15] = Postemergence, 31 g ai/ha, 0 to 100 scale (0 no effect, 100 complete control)
[16] = Postemergence, 62 g ai/ha, scale 0 to 100 (0 no effect, 100 complete control)
[17] = Postemergence, 125 g ai/ha, scale 0 to 100 (0 no effect, 100 complete control)
[18] = Postemergence, 250 g ai/ha, scale 0 to 100 (0 no effect, 100 complete control), 13 to 15 days

In the case of `CC(C)CC(=O)OC1=C(C(=O)c2cnc(-c3ccccc3)n(-c3ccccc3)c2=O)C(=O)CCC1` [Compound 83], the “Plant response rating, Corn” value (corn (Zea mays); [11]) is reported as 0, the “Corn plant response rating (0 to 100 scale)” value (corn (Zea mays); [12]) is reported as 5 and the “Plant response rating, Corn” value (corn (Zea mays); [13]) is reported as 15. For the same compound, the “Plant response rating, Corn” value (corn (Zea mays); [14]) was 25, the “Plant response rating, Johnsongrass” value [1, 11] was 95 and the “Johnsongrass plant response rating (0 to 100 scale)” value [1, 12] was 100. For the same compound, the “Plant response rating, Johnsongrass” value [1, 14] was 100, the “Plant response rating, Velvetleaf” value [2, 11] was 85 and the “Velvetleaf plant response rating (0 to 100 scale)” value [2, 12] was 90. For the same compound, the “Plant response rating, Velvetleaf” value [2, 14] was 100, the “Plant response rating, Ragweed” value [3, 11] was 75 and the “Ragweed plant response rating (0 to 100 scale)” value [3, 12] was 80. For the same compound, the “Plant response rating, Ragweed” value [3, 14] was 98, the “Plant response rating, Cupgrass, Woolly” value [4, 11] was 70 and the “Cupgrass, Woolly plant response rating (0 to 100 scale)” value [4, 12] was 85. For the same compound, the “Plant response rating, Cupgrass, Woolly” value [4, 13] was 90, the “Plant response rating, Cupgrass, Woolly” value [4, 14] was 95 and the “Plant response rating, Foxtail, Giant” value [5, 11] was 80. The “Foxtail, Giant plant response rating (0 to 100 scale)” value [5, 12] was 95, the “Plant response rating, Foxtail, Giant” value [5, 14] was 98 and the “Plant response rating, Ryegrass, Italian” value [6, 11] was 0. The “Ryegrass, Italian plant response rating (0 to 100 scale)” value [6, 12] was 0, the “Plant response rating, Ryegrass, Italian” value [6, 14] was 5 and the “Plant response rating, Surinam Grass” value [7, 11] was 75. For the same compound, the “Surinam Grass plant response rating (0 to 100 scale)” value [7, 12] was 75, the “Plant response rating, Surinam Grass” value [7, 14] was 90 and the “Plant response rating, Kochia” value (kochia (Kochia scoparia); [11]) was 65. For the same compound, the “Kochia plant response rating (0 to 100 scale)” value (kochia (Kochia scoparia); [12]) was 75, the “Plant response rating, Kochia” value (kochia (Kochia scoparia); [14]) was 95 and the “Plant response rating, Pigweed” value [8, 11] was 80. For the same compound, the “Pigweed plant response rating (0 to 100 scale)” value [8, 12] was 90, the “Plant response rating, Pigweed” value [8, 14] was 100 and the “Plant response rating, Soybean” value (soybean (Glycine max); [11]) was 75. The “Soybean plant response rating (0 to 100 scale)” value (soybean (Glycine max); [12]) was 90, the “Plant response rating, Soybean” value (soybean (Glycine max); [14]) was 95 and the “Plant response rating, Blackgrass” value [9, 11] was 0. The “Blackgrass plant response rating (0 to 100 scale)” value [9, 12] was 0, the “Plant response rating, Blackgrass” value [9, 13] was 0 and the “Plant response rating, Blackgrass” value [9, 14] was 0. For the same compound, the “Plant response rating, Bromegrass, Downy” value [10, 11] was 40, the “Bromegrass, Downy plant response rating (0 to 100 scale)” value [10, 12] was 45 and the “Plant response rating, Bromegrass, Downy” value [10, 13] was 45. The “Plant response rating, Bromegrass, Downy” value [10, 14] was 60.

With `O=C1CCCC(O)=C1C(=O)c1cnc(-c2ccc(F)cc2)n(C2CCCCC2)c1=O` [Compound 197] the “Plant response rating, Corn” value (corn (Zea mays); [15]) was 15, the “Plant response rating, Corn” value (corn (Zea mays); [16]) was 35 and the “Plant response rating, Corn” value (corn (Zea mays); [17]) was 45. The “Plant response rating, Corn” value (corn (Zea mays); [18]) was 65, the “Plant response rating, Johnsongrass” value [1, 15] was 70 and the “Plant response rating, Johnsongrass” value [1, 16] was 85. The “Plant response rating, Johnsongrass” value [1, 17] was 95, the “Plant response rating, Johnsongrass” value [1, 18] was 100 and the “Plant response rating, Velvetleaf” value [2, 15] was 80. The “Plant response rating, Velvetleaf” value [2, 16] was 80, the “Plant response rating, Velvetleaf” value [2, 18] was 100 and the “Plant response rating, Cupgrass, Woolly” value [4, 15] was 70. For the same compound, the “Plant response rating, Cupgrass, Woolly” value [4, 16] was 85, the “Plant response rating, Cupgrass, Woolly” value [4, 17] was 90 and the “Plant response rating, Cupgrass, Woolly” value [4, 18] was 98. The “Plant response rating, Foxtail, Giant” value [5, 15] was 85, the “Plant response rating, Foxtail, Giant” value [5, 16] was 95 and the “Plant response rating, Foxtail, Giant” value [5, 17] was 98. For the same compound, the “Plant response rating, Foxtail, Giant” value [5, 18] was 100, the “Plant response rating, Ryegrass, Italian” value [6, 15] was 0 and the “Plant response rating, Ryegrass, Italian” value [6, 16] was 0. For the same compound, the “Plant response rating, Ryegrass, Italian” value [6, 18] was 35, the “Plant response rating, Surinam Grass” value [7, 15] was 50 and the “Plant response rating, Surinam Grass” value [7, 16] was 55. For the same compound, the “Plant response rating, Surinam Grass” value [7, 18] was 70, the “Plant response rating, Kochia” value (kochia (Kochia scoparia); [15]) was 65 and the “Plant response rating, Kochia” value (kochia (Kochia scoparia); [16]) was 80. For the same compound, the “Plant response rating, Kochia” value (kochia (Kochia scoparia); [17]) was 95, the “Plant response rating, Kochia” value (kochia (Kochia scoparia); [18]) was 98 and the “Plant response rating, Pigweed” value [8, 15] was 80. The “Plant response rating, Pigweed” value [8, 16] was 90, the “Plant response rating, Pigweed” value [8, 18] was 100 and the “Plant response rating, Soybean” value (soybean (Glycine max); [15]) was 98. For the same compound, the “Plant response rating, Soybean” value (soybean (Glycine max); [16]) was 100, the “Plant response rating, Soybean” value (soybean (Glycine max); [18]) was 100 and the “Plant response rating, Blackgrass” value [9, 15] was 0. The “Plant response rating, Blackgrass” value [9, 16] was 10, the “Plant response rating, Blackgrass” value [9, 17] was 10 and the “Plant response rating, Blackgrass” value [9, 18] was 45. For the same compound, the “Plant response rating, Bromegrass, Downy” value [10, 15] was 15, the “Plant response rating, Bromegrass, Downy” value [10, 16] was 15 and the “Plant response rating, Bromegrass, Downy” value [10, 17] was 30. For the same compound, the “Plant response rating, Bromegrass, Downy” value [10, 18] was 30.
